Measured values reported in patent US12006500B2 (priority 2020, dated 2024).
Read-outs that look alike come from different tables or passages of the source. d = 2'-deoxy (DNA); r = 2'-OH (RNA)

How the values were obtained:
Format in all cases: cell-based
[1] = test system: SARS-CoV-2 target gene fragments (Spike, ORF1ab, ORF3A & E & M, N & ORF10 & 3'UTR); details: for Primary Screening (KD %, 60 ng/well, 48 h, 96 well) 293T / EC50 (pg/ul, 48 h, 96 well) 293T: Table C; for EC50 293T cells: Table D
[2] = test system: SARS-CoV-2 target gene fragments (Spike, ORF1ab, ORF3A & E & M, N & ORF10 & 3'UTR); details: for Primary Screening (KD %, 60 ng/well, 48 h, 96 well) A549 / EC50 (pg/ul, 48 h, 96 well) A549: Table C; for EC50 A549 cells: Table D
SARS-CoV-2 = details: for block of infection at the lowest concentration tested / inhibition of infection compared to the NS control: concentration curves; for block of infection at the lowest concentration tested: 3 nM; for Duplicate A % Infection / Duplicate B % Infection / Mean % infected / Mean % inhibition / Duplicate A % Inhibition / Duplicate B % Inhibition: primary screen using live virus; for Mean % infected / Mean % inhibition: average of the duplicates; for Mean % inhibition: vs non-silencing controls; for Duplicate A % Inhibition / Duplicate B % Inhibition: compared to the mean of the non-silencing controls; for inhibition of infection compared to the NS control: individual siRNAs at varying concentrations, flat response

## CAAGUCAAACAAAUUUACAdTdT (sense CAAGUCAAACAAAUUUACATT; sugars from the 5' end r19 d2, backbone not given here) [Guangzhou5]
[1]
  Primary Screening (KD %, 60 ng/well, 48 h, 96 well) 293T: 75%
[2]; A549
  Primary Screening (KD %, 60 ng/well, 48 h, 96 well) A549: 80%

## CCACCAACAGAGCCTAAAA [COV18]
SARS-CoV-2
  inhibition of the virus: 100%
  block of infection at the lowest concentration tested: complete block of infection
  Duplicate A % Infection: 9%
  Duplicate B % Infection: 7%
  Mean % infected: 8%
  Mean % inhibition: 68%
  Duplicate A % Inhibition: 59%
  Duplicate B % Inhibition: 76%
  activity in a primary screen using live virus (ranking in words): best activity

## CCAGAACAAACCCAAGGAA [COV13]
[1]
  Primary Screening (KD %, 60 ng/well, 48 h, 96 well) 293T: 84%
  EC50 (pg/ul, 48 h, 96 well) 293T: 3.1 pg/µL
  EC50 293T cells: 3.1 ng/mL

## CCCACCAACAGAGCCTAAA [COV17]
SARS-CoV-2
  block of infection at the lowest concentration tested: complete block of infection

## CCCTAATGTGTAAAATTAA [COV23]
SARS-CoV-2
  block of infection at the lowest concentration tested: complete block of infection

## CCTAATGTGTAAAATTAAT [COV24]
[1]
  Primary Screening (KD %, 60 ng/well, 48 h, 96 well) 293T: 86%
  EC50 (pg/ul, 48 h, 96 well) 293T: 2.4 pg/µL
  EC50 293T cells: 2.4 ng/mL
SARS-CoV-2
  block of infection at the lowest concentration tested: complete block of infection

## CCTTTGAAAAAGGTGACTA [COV5]
[1]
  Primary Screening (KD %, 60 ng/well, 48 h, 96 well) 293T: 85%
[2]; A549
  Primary Screening (KD %, 60 ng/well, 48 h, 96 well) A549: 84%

## CGACTACTAGCGTGCCTTT [COV6]
[1]
  Primary Screening (KD %, 60 ng/well, 48 h, 96 well) 293T: 78%
  EC50 (pg/ul, 48 h, 96 well) 293T: 17.9 pg/µL
  EC50 293T cells: 17.9 ng/mL
SARS-CoV-2
  inhibition of infection compared to the NS control: ~50%
[2]; A549
  Primary Screening (KD %, 60 ng/well, 48 h, 96 well) A549: 87%
  EC50 (pg/ul, 48 h, 96 well) A549: 0.9 pg/µL
[2]
  EC50 A549 cells: 0.9 ng/mL

## CGCTTCGATTGTGTGCGTA [COV9]
[1]
  Primary Screening (KD %, 60 ng/well, 48 h, 96 well) 293T: 88%
SARS-CoV-2
  inhibition of infection compared to the NS control: ~50%
[2]; A549
  Primary Screening (KD %, 60 ng/well, 48 h, 96 well) A549: 74%

## CUAAUCUUGCUGCUACUAAAAUGUC (antisense strand not given here) [Guangzhou23]
[1]
  Primary Screening (KD %, 60 ng/well, 48 h, 96 well) 293T: 79%
[2]; A549
  Primary Screening (KD %, 60 ng/well, 48 h, 96 well) A549: 87%

## CUAAUCUUGCUGCUACUAAdTdT [Guangzhou12]
[1]
  Primary Screening (KD %, 60 ng/well, 48 h, 96 well) 293T: 70%
[2]; A549
  Primary Screening (KD %, 60 ng/well, 48 h, 96 well) A549: 85%

## CUGCUAAUCUUGCUGCUACUAAAAU [Guangzhou21]
[1]
  Primary Screening (KD %, 60 ng/well, 48 h, 96 well) 293T: 81%
[2]; A549
  Primary Screening (KD %, 60 ng/well, 48 h, 96 well) A549: 91%

## CUUGCUGCUACUAAAAUGUdTdT [Guangzhou13]
[1]
  Primary Screening (KD %, 60 ng/well, 48 h, 96 well) 293T: 76%
[2]; A549
  Primary Screening (KD %, 60 ng/well, 48 h, 96 well) A549: 82%

## GCCATTAGTGCAAAGAATA [COV4]
SARS-CoV-2
  inhibition of the virus: 100%
  block of infection at the lowest concentration tested: complete block of infection
  Duplicate A % Infection: 6%
  Duplicate B % Infection: 5%
  Mean % infected: 6%
  Mean % inhibition: 77%
  Duplicate A % Inhibition: 70%
  Duplicate B % Inhibition: 84%
  activity in a primary screen using live virus (ranking in words): best activity

## GCCGCAAATTGCACAATTT [COV15]
SARS-CoV-2
  block of infection at the lowest concentration tested: complete block of infection
  Duplicate A % Infection: 10%
  Duplicate B % Infection: 13%
  Mean % infected: 11%
  Mean % inhibition: 56%
  Duplicate A % Inhibition: 54%
  Duplicate B % Inhibition: 57%

## GCUAAUCUUGCUGCUACUAAAAUGU [Guangzhou22]
[1]
  Primary Screening (KD %, 60 ng/well, 48 h, 96 well) 293T: 83%
  EC50 (pg/ul, 48 h, 96 well) 293T: 23.2 pg/µL
[2]; A549
  Primary Screening (KD %, 60 ng/well, 48 h, 96 well) A549: 90%

## GGAAGAGCCCTAATGTGTA [COV21]
SARS-CoV-2
  block of infection at the lowest concentration tested: complete block of infection

## GGAAGGAAGTTCTGTTGAA [COV3]
[1]
  EC50 on the inhibition efficiency: 5.8 ng/mL
  Primary Screening (KD %, 60 ng/well, 48 h, 96 well) 293T: 89%
  EC50 (pg/ul, 48 h, 96 well) 293T: 5.8 pg/µL
  EC50 293T cells: 5.8 ng/mL
SARS-CoV-2
  inhibition of the virus: 100%
  block of infection at the lowest concentration tested: complete block of infection
  Duplicate A % Infection: 3%
  Duplicate B % Infection: 6%
  Mean % infected: 5%
  Mean % inhibition: 81%
  Duplicate A % Inhibition: 84%
  Duplicate B % Inhibition: 79%
  activity in a primary screen using live virus (ranking in words): best activity
SARS-CoV-2; 0.041 nM alone
  inhibition, single siRNA alone: ~48%
[2]; A549
  EC50 on the inhibition efficiency: 0.3 ng/mL
  Primary Screening (KD %, 60 ng/well, 48 h, 96 well) A549: 89%
  EC50 (pg/ul, 48 h, 96 well) A549: 0.3 pg/µL
[2]
  EC50 A549 cells: 0.3 ng/mL

## GGACAAUCAAAAAGAGUUGdTdT [Guangzhou16]
[1]
  Primary Screening (KD %, 60 ng/well, 48 h, 96 well) 293T: 83%
  EC50 (pg/ul, 48 h, 96 well) 293T: 20.4 pg/µL
[2]; A549
  Primary Screening (KD %, 60 ng/well, 48 h, 96 well) A549: 80%

## GGCCGCAAATTGCACAATT [COV14]
SARS-CoV-2
  block of infection at the lowest concentration tested: complete block of infection
  Duplicate A % Infection: 9%
  Duplicate B % Infection: 8%
  Mean % infected: 8%
  Mean % inhibition: 66%
  Duplicate A % Inhibition: 57%
  Duplicate B % Inhibition: 75%
  activity in a primary screen using live virus (ranking in words): best activity

## UCUGCUAAUCUUGCUGCUACUAAAA (antisense strand not given here) [Guangzhou32]
[1]
  Primary Screening (KD %, 60 ng/well, 48 h, 96 well) 293T: 89%
  EC50 (pg/ul, 48 h, 96 well) 293T: 8 pg/µL
  EC50 293T cells: ~8 ng/mL
[2]; A549
  Primary Screening (KD %, 60 ng/well, 48 h, 96 well) A549: 90%

## UGCUAAUCUUGCUGCUACUAAAAUG (antisense strand not given here) [Guangzhou25]
[1]
  Primary Screening (KD %, 60 ng/well, 48 h, 96 well) 293T: 83%
[2]; A549
  Primary Screening (KD %, 60 ng/well, 48 h, 96 well) A549: 90%

## UUGGUGGUUUUAAUUUUUCACAAAU (antisense strand not given here) [Guangzhou31]
[1]
  Primary Screening (KD %, 60 ng/well, 48 h, 96 well) 293T: 81%
  EC50 (pg/ul, 48 h, 96 well) 293T: 44 pg/µL
[2]; A549
  Primary Screening (KD %, 60 ng/well, 48 h, 96 well) A549: 73%

## UUUGGUGGUUUUAAUUUUUCACAAA (antisense strand not given here) [Guangzhou30]
[1]
  Primary Screening (KD %, 60 ng/well, 48 h, 96 well) 293T: 86%
[2]; A549
  Primary Screening (KD %, 60 ng/well, 48 h, 96 well) A549: 78%
